In US20240226241A1, “FORMULATIONS FOR INTRAOCULAR DELIVERY OF PEPTIDES DERIVED FROM TYPE IV COLLAGEN” (AsclepiX Therapeutics, Inc., priority 2022, published 2024):
No end group written: not given here.

What was measured:
[1] = Pharmacokinetics after suprachoroidal injection, LC/MS/MS of plasma and ocular tissues; details: SCh injection
Procedure: (§1) This example evaluates the pharmacokinetics (PK)/tolerability of the AXT107 suspension (5% sucrose, 0.9% NaCl) at 4 different dose levels administered by suprachoroidal (Sch) injection in female Dutch Belted rabbits. In Phase 1 of these experiments, animals received a 100 μL SCh injection in both eyes on Day 0. In these experiments, Group 1 received 469 μg of AXT107 peptide, Group 2 received 246 μg of AXT107 peptide, and Group 3 received vehicle (i.e., 5% sucrose in saline).
(§2) Blood was collected from Group 3 pre-dose, and in terminal animals on Day 90, and was processed for plasma. All eyes in Groups 1 and 2 and two Group 3 eyes were collected and dissected. Blood and ocular tissues underwent PK analysis.
(§3) In the next studies, animals received a 100 μL SCh injection (of AXT107 suspension, 5% sucrose and 0.9% NaCl) in both eyes on Day 0. Group 1 animals received 340 μg of AXT107 peptide, Group 2 animals received 219 μg AXT107 peptide, Group 3 animals received 142 μg of AXT107 peptide, and Group 4 animals received 115 μg AXT107 peptide.
(§4) On Days 1, 15, 30, 60, and 90, n=2 animals/group were euthanized and plasma and ocular tissues were collected for PK.
(§5) Plasma and ocular tissues collected during the study were analyzed for AXT107 peptide PK parameters by non-GLP liquid chromatography with tandem-mass spectrometry (LC/MS/MS).

[2] = Tolerability after suprachoroidal injection (ocular examination, tonometry, OCT, H&E histopathology); details: for tolerability: 100 μL SCh injection in both eyes on Day 0, to Day 90
Procedure: This example evaluates the pharmacokinetics (PK)/tolerability of the AXT107 suspension (5% sucrose, 0.9% NaCl) at 4 different dose levels administered by suprachoroidal (Sch) injection in female Dutch Belted rabbits. In Phase 1 of these experiments, animals received a 100 μL SCh injection in both eyes on Day 0.
Ocular examinations were performed at baseline, and on Days 1, 3, 7, 15, 30, 60, and 90. […] Tonometry was performed at baseline, and on Days 1, 3, 7, 15, 30, 60, and 90. […] Optical coherence tomography (OCT) was performed at baseline, post-dose to confirm SCh dosing, and on Day 15.
All eyes in Groups 1 and 2 and two Group 3 eyes were collected and dissected. […] From Group 3, two eyes were collected and processed for hematoxylin & eosin (H&E) histopathology.
In the next studies, animals received a 100 μL SCh injection (of AXT107 suspension, 5% sucrose and 0.9% NaCl) in both eyes on Day 0. […] Ocular examinations were performed at baseline and on Days 1, 9, 30, 60, and 90.
Tonometry was performed at baseline and on Days 1, 9, 30, 60, and 90.
OCT was performed at baseline, post-dose to confirm SCh dosing, and in terminal animals on Days 15 and 30.
On Day 90, an additional Group 1 animal was euthanized and OU were processed for H&E histopathology.

[3] = rabbit, in vivo
Procedure: as §1, §2, §3, §4, §5

LRRFSTAPFAFIDINDVINF [AXT107 peptide]
drug levels in retina [1]: present | drug levels in aqueous humor ([1]; all timepoints): absent | drug levels in plasma ([1]; all timepoints): absent | H&E histopathology of eyes ([2]; Group 1 (340 μg), Day 90, both eyes, considered incidental (needle damage), unrelated to AXT107): mild mononuclear cell infiltrate in the limbal conjunctiva | tolerability ([2]; Phase 1: 469 μg and 246 μg): well tolerated | tolerability ([2]; all doses): well tolerated | drug levels in choroid/RPE [3]: present
